Reference: PMC7274539, “The selective glucocorticoid receptor antagonist CORT125281 has tissue-specific activity” (The Journal of Endocrinology, 2020)
Where two headings read alike, the source gives them in different places.

Legend:
[1] = Quantification of serum and tissue CORT125281 concentration by LC-MS; type: in vivo, C57Bl/6J mice; details: male, C57Bl/6J, mouse, oral, 60 mg/kg/day for 6 days, mice
Protocol: (§1) All studies involving animals were approved by the institutional ethics committee on animal care and experimentation at the Leiden University Medical Center. The 8-week old male C57Bl/6J mice (Charles River) were housed in ventilated cages with a 12 h light:12 h darkness regime and ad libitum access to food and water. In the acute corticosterone exposure experiments, mice received a synthetic chow diet (Research Diets, New Brunswick, NJ, USA) containing vehicle or CORT125281 (6, 20 or 60 mg/kg/day, Corcept Therapeutics, Menlo Park, CA, USA) for 6 days. […] Mice were treated daily with vehicle, 60 mg/kg mifepristone (Corcept Therapeutics) or 60 mg/kg CORT125281 (dissolved in PBS with 0.1% Tween 80 and 0.5% hydroxypropylmethylcellullose, Corcept Therapeutics) via oral gavage for 5 days, after which mice were killed by CO2 inhalation. Throughout the experiment, body weight was monitored and body composition was determined with EchoMRI™ (Frankfurt, Germany). After 5 days, blood was collected from the lateral tail vain in paraoxon-coated capillaries after a 6-h fast. Plasma triglyceride, total cholesterol, free fatty acid, glucose and insulin levels were determined using commercially available kits (Roche; Instruchemie, Delfzijl, Netherlands and Crystal Chem, Zaandam, Netherlands). Blood concentrations of the major leukocyte classes, that is, lymphocytes, monocytes and eosinophils, were determined in whole blood using an automatic veterinary hematology analysis (Sysmex XT-2000iV; Goffin Meyvis, Etten-Leur, the Netherlands).
Compound levels were assessed against standard curves for CORT125281, ranging from 0.05–20 µM in each tissue. Tissues were weighed and water was added at three-fold the weight of each individual sample before homogenising. Internal standard (90 µL of 1 µM leucine enkephalin in acetonitrile) was added to all samples, standard curves and quality control spikes of CORT125281. After centrifugation, a fixed volume of supernatant was removed and pellets were dissolved in water. The samples were then analysed by LC-MS utilising a QTRAP 5500 mass spectrometer (Sciex, Warrington, UK), UPLC (Agilent) instrument, equipped with a C18 Cortecs UPLC analytical column (2.1 × 30 mm, […]). […] The gradient started with a mobile phase composition of 5% B which was held for 0.1 min. The percentage of B was then linearly ramped to 95% over 0.1 to 1.2 min and then held constant up to 1.3 min. […] The mass spectrometer was set to operate in negative ion mode. The ion source temperature was 650°C, the ion spray voltage was −4000 V, gases 1, 2 and curtain gas were 30 V, 60 V and 35 V, respectively, and the entrance and collisition exit potential were −10 V and −13 V. The collision energy and declustering potential used for the multiple reaction monitoring (MRM) transitions of CORT125281 were −28 V and −60 V, the Q1 and Q3 masses were 588.649 Da and 248.800 Da, while the collision energy and declustering potential for the internal standard were −40 V and 0 V and the Q1 and Q3 masses 554.2 Da and 235.9 Da.

[2] = biological target: T1, human GR ligand-binding domain (Homo sapiens, UniProt P04150); test: MARCoNI peptide interaction profiling (coregulator-nuclear receptor interaction); type: biochemical; details: CORT125281 1 µM
T1 construct: purchased Invitrogen PV4689
T1 sequence (P04150 524-758 limits assumed): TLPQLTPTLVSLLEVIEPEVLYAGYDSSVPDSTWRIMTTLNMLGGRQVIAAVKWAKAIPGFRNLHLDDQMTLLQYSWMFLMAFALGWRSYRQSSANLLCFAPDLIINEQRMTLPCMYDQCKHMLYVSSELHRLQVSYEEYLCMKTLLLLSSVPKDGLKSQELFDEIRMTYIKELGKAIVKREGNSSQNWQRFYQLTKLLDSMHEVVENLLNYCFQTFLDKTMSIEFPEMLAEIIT
Protocol: As the assay utilizes human GR, experiments were performed with cortisol rather than corticosterone. […] Incubation was performed at 20°C in a PamStation96 (PamGene International, Den Bosch, Netherlands) for 40 min. Receptor binding to each peptide on the array, reflected by a fluorescent signal, was quantified by analysis of .tiff images using BioNavigator software (PamGene International).

[3] = test system: male C57Bl/6J mice; test: Subchronic corticosterone exposure (pellet): body composition, organ weights, leukocytes, plasma insulin, glucose, lipids; type: in vivo; details: corticosterone pellet 5 days, 60 mg/kg/day oral gavage
Protocol: as §1
(§2) In both acute and subchronic corticosterone experiments, relevant tissues (including quadriceps muscle, interscapular BAT, gonadal white adipose tissue (WAT), adrenals, spleen, thymus, pituitary and hippocampus) were collected to determine tissue weight and/or for further molecular analysis.

[4] = test system: GR transcriptional activity; test: Subchronic corticosterone exposure: RT-qPCR of GR and insulin target genes in tissues; type: in vivo, C57Bl/6J mice; details: corticosterone pellet 5 days, 60 mg/kg/day oral gavage
Protocol: as §1, §2
Total RNA was isolated from snap-frozen tissues using TriPure isolation reagent (Roche). After reverse transcription to cDNA (Promega), RT-qPCR was performed using IQ SYBR-Green supermix and MyIQ thermal cycler (Bio-RAD CFX96). Primers were tested for high efficiency (90–110%) and for amplification of a single PCR product. All primer sequences are listed in Supplementary Table 1 (see section on supplementary materials given at the end of this article), with the exception of Ncor1 and Ncor2 which were purchased from Qiagen. Fold change expression was calculated using the 2^−ΔΔ^CT method.

[5] = test system: male C57Bl/6J mice; test: Body weight, food intake and immune cell counts under CORT125281 via the diet; type: in vivo; details: for body weight / food intake: 6 days
Protocol: as §1

[6] = test system: GR; details: ref Kroon et al. 2018; cited from earlier work

## Cn1ncc(S(=O)(=O)N2CC[C@H]3Cc4c(cnn4-c4ccc(F)cc4)C[C@]3(C(=O)c3cc(C(F)(F)F)ccn3)C2)n1 [CORT125281]
[1]; BAT (brown adipose tissue) relative to plasma, read-out: tissue to plasma ratio, BAT
  Kp at 6 days: 19.1
[1]; BAT (brown adipose tissue), BAT, read-out: CORT125281 level, BAT
  concentration at 6 days: 4720 ng/g
[1]; WAT (white adipose tissue) relative to plasma, read-out: tissue to plasma ratio, WAT
  Kp at 6 days: 46.7
[1]; brain (neocortex) relative to plasma, neocortex, read-out: tissue to plasma ratio, brain
  Kp at 6 days: 1.8
[1]; gonadal WAT (white adipose tissue), gonadal WAT, read-out: CORT125281 level, WAT
  concentration at 6 days: 12500 ng/g
[1]; liver relative to plasma, read-out: tissue to plasma ratio, liver
  Kp at 6 days: 8
[1]; brain neocortex, read-out: CORT125281 level, brain
  concentration at 6 days: 542 ng/g
[1]; liver, read-out: CORT125281 level, liver
  concentration at 6 days: 2040 ng/g
[1]; plasma, read-out: CORT125281 level, plasma
  concentration at 6 days: 419 ng/g
[2]
  hierarchal clustering of ligand-induced GR-coregulator response profile: clustered with that of mifepristone
  number of coregulator motifs recruited compared to mifepristone: tended to recruit fewer motifs
[2]; mifepristone 0.1 µM
  binding of corepressor motifs of NCOR1 and NCOR2 (SMRT) by ligand-GR complex: only very modestly
[3]
  HOMA-IR: improved
  corticosterone-induced alteration in body weight (BW) gain: did not prevent
  corticosterone-induced hyperlipidaemia (plasma triglycerides, total cholesterol): seemed to modestly reduce
  free fatty acid levels: did not affect
  glucose levels: improved
  lean mass (reduced by corticosterone): not altered
  thymus weight: did not prevent
[3]; 6-h fast
  corticosterone-induced hyperinsulinemia: partially prevented
[4]
  expression of insulin target genes G6p and Pepck in liver, Glut4 and Lpl in WAT, Glut4 and Gsk3b in muscle: did not affect
[4]; liver, muscle, BAT, WAT, hippocampus
  corticosterone-induced expression of GR target genes (Fkbp5, Gilz, Sgk1, Mt2a): did not prevent
[5]; 60 mg/kg/day via diet 6 days, without excess corticosterone exposure
  immune counts (WBC, lymphocytes, monocytes, eosinophils): did not alter
[5]; 60 mg/kg/day via food
  body weight: did not alter
  food intake: did not alter
[5]; 6 and 20 mg/kg/day via food
  body weight: did not alter
  food intake: did not alter
[6]
  partial agonism at GR in reporter assays: very low partial agonism
